Patent publication EP0684822B1, “CARBOCYCLIC DEOXYGUANOSINE ANALOGS FOR THE TREATMENT OF VIRAL INFECTIONS” (SOUTHERN RESEARCH INSTITUTE, priority 1993, dated 1994)
Converted amounts (≈) assume the structure as drawn. “And” between values parts separate entries of the source, which are not always exact repeats. Equal values may be shown once.

Columns and labels:
[1] = system: H.Ep.-2 cells infected with HSV-1; assay: Metabolism in HSV-1-infected H.Ep.-2 cells, SAX HPLC; type: cell-based, human; conditions: H.Ep.-2 cells infected with HSV-1, 8 hours, Fig. 4
Procedure: The in vivo metabolism of D- and L-2'CdG was also measured in HSV-[TK+]-infected, HSV-[TK-]-infected and mock infected H.Ep.-2 cells (human epidermal carcinoma cells, ATCC CCL23). Uninfected and infected cells were incubated in fresh medium containing 2 µCi/ml of either [^3H]-D- or L-2'CdG, as described above, to measure the metabolism of these enantiomers. After 8 hours the cells were harvested and washed free of medium with PBS, and extracts were prepared with cold 0.5 N perchloric acid for 0.5 hr. The extract was then neutralized with potassium bicarbonate and the resulting precipitate was removed by centrifugation. The supernatant was lyophilized to dryness and the acid-soluble metabolites were separated using SAX HPLC as described above.
While these findings are similar to those obtained with the isolated viral kinase, they differ from the resulted with the isolated enzyme in that relatively more di- and triphosphate were formed from L-2'CdG.

HSV-1 TK = biological target: T1, HSV-1 TK (Human herpesvirus 1, UniProt P0DTH5); assay: Competitive inhibition of [3H]-thymidine phosphorylation by partially purified HSV-1 TK; type: biochemical
T1 construct: HSV thymidine kinase (HSV TK) was isolated from HELA (BU25) cells infected with the SW148 strain of HSV-1; made in house; host or cells: HeLa (BU25) thymidine-kinase-deficient cells infected with HSV-1 strain S148/SW148
T1 sequence (P0DTH5 whole entry): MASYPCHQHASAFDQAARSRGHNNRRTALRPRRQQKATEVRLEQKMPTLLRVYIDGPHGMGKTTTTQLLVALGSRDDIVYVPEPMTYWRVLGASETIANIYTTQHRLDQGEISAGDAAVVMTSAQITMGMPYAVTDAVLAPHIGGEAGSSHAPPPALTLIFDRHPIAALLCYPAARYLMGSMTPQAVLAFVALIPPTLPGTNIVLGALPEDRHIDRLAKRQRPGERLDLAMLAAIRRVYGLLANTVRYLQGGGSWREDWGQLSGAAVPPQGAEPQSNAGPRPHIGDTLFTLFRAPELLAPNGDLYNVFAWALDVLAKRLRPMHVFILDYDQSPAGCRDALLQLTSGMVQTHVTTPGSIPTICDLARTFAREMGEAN
Procedure: The Ki's were determined from a plot of the slope of each line versus the concentration of the competitor (D-, L, or D,L-2'CdG) and are summarized below: TABLE 2

HSV-TK extract = biological target: T2, HSV-TK extract (Human herpesvirus 1, UniProt P0DTH5); assay: Phosphorylated products formed by HSV-TK extract, SAX HPLC; type: biochemical, HSV-1
T2 construct: HSV thymidine kinase (HSV TK) was isolated from HELA (BU25) cells infected with the SW148 strain of HSV-1; made in house; host or cells: HeLa (BU25) thymidine-kinase-deficient cells infected with HSV-1 strain S148/SW148
T2 sequence (P0DTH5 whole entry): as above
Procedure: HSV thymidine kinase activity was measured in 200 µl volumes containing HSV-TK extract obtained as described previously (Belzarini et al., supra), 5.0 mM ATP, 5 mM MgCl2, 9 mM potassium fluoride, 11.2 µg phosphoenol pyruvate, 5 µg of pyruvate kinase, 10 mM β-mercaptoethanol and either 50 µM [3H]-D-, L, or no drug for 60 minutes at 37°C. The reaction was stopped with perchloric acid (PCA), neutralized with potassium bicarbonate, and the reaction products were analyzed by SAX HPLC. The UV absorption spectra of selected peaks were determined with a rapid spectral detector (LKB, Gaithersburg, MD). […] The amount of monophosphate derived from L-2'CdG was about the same as the amount of triphosphate derived from D-2'CdG, and confirmed the results of the disk assay.
HSV extracts were also incubated with 10 µM of either [^3H]-D- or L-2'Cdg, as described above, to measure the metabolism of these entantiomers. After 2 hours the reaction was stopped with perchloric acid (PCA), neutralized with potassium bicarbonate, and the acid-soluble metabolites were separated using SAX HPLC as described above. The results are summarized below.: TABLE 3

HSV-1 (strain 377, TK+) = assay: Antiviral activity against HSV-1; type: cell-based; conditions: HSV-1, range of tests
Procedure: D-2'-CdG and L-2'-CdG were tested, alongside D,L-2'-CdG, against both HSV-1 (strain 377, TK+; obtained from Dr. Earl Kern, University of Alabama) and HSV-2 (strain MS, TK+; also obtained from Dr. Earl Kern). In these tests (Table 5), Ara-A and acyclovir (ACV) were the positive control drugs. In four tests vs. HSV-1, the antiviral activity (VR) and potency (MIC50) of D-2'-CdG were approximately the same as those of racemic 2-CdG. L-2'-CdG was only modestly active.

HBV = HBV DNA production and replication in 2.2.15 cell cultures; type: cell-based, Hepatitis B virus (HBV); conditions: for INTRACELLULAR HBV DNA INTEG. / INTRACELLULAR HBV DNA MONO. / INTRACELLULAR HBV DNA RI: 24 hours following 10th day of treatment; for HBV DNA IN CULTURE MEDIUM DAY 0: day 0 of treatment
Procedure: 2'-CdG was tested at three concentrations (50 ng/ml, 500 ng/ml, and 5 ug/ml) against the HBV-producing, human liver cell line, 2.2.15 (Sells et al., J. Virol. 62:2836, 1989). A racemic (D,L) preparation, as well as the purified D and L isomers were tested. For these analyses compounds were tested in duplicate at all concentrations. Ara-AMP and ddG (2'3'-dideoxyguanosine) were used as HBV inhibitory control compounds. […] The nucleoside analog, ddG was used as an additional control compound since ddG has activity against duck hepatitis B virus in chronically infected Peking ducks (Lee et al., Antimicrob. Agents Chemother. 33:336, 1989) and 2'-CdG is also a deoxyguanosine analog.
2.2.15 cells were seeded in 6 well culture plates and grown to confluence over a 10 day period in medium with 5% FBS. Test compounds were then added daily for a continuous 10 day period in medium with 1% dialyzed FBS. […] Compounds were tested, in duplicate cultures, at 3 concentrations covering a 100-fold range. Culture medium (changed daily during the treatment period) was collected and stored for analysis of extracellular (virion) HBV DNA from days 0, 3, 6, and 10 of the treatment period. This allowed for an analysis of the level of HBV virion production during discrete 24 hour intervals and reduced the potential for the buildup of toxic metabolites derived from the test compounds. Treated cells were lysed following the 10th day of treatment for the analysis of intracellular HBV genomic forms. HBV DNA was analyzed in a quantitative manner for (i) overall levels (both extracellular and intracellular DNA) and (ii) the relative rate of HBV replication (intracellular DNA only).
HBV DNA levels were measured by comparison to known amounts of HBV DNA standards applied to every nitrocellulose filter (gel or slot blot) using an AMBIS Beta Scanner. Standard curves, generated by multiple analyses, were used to correlate CPM measurements with relative levels of target HBV DNA. The levels of HBV DNA in each of three classes of intracellular viral genomic forms were individually quantitated: integrated HBV DNA, episomal monomeric genomes and HBV DNA replication intermediates (RI). Integrated HBV DNA was used to normalize the relative amounts of DNA in each lane because the levels of this class of HBV DNA would be expected to remain constant on a per cell basis. The levels of the monomeric HBV genomes and RI were used as an indicator of the relative level of HBV replication.

Nc1nc2c(ncn2[C@H]2C[C@@H](CO)[C@H](O)C2)c(=O)[nH]1 [L-2'-CdG, [1S,3R,4S-(1α,3β,4α)]-L-2-Amino-1,9-dihydro-9-[3-hydroxy-4-(hydroxymethyl)cyclopentyl]-6H-purin-6-one]
principal soluble metabolite [1]: the monophosphate
Ki (HSV-1 TK): 3.4 µM
DPM di (HSV-TK extract; 10 µM [3H] compound, 2 hours): 2050 DPM
DPM mono (HSV-TK extract; 10 µM [3H] compound, 2 hours): 115000 DPM
DPM nucleoside (HSV-TK extract; 10 µM [3H] compound, 2 hours): 40944 DPM
DPM total (HSV-TK extract; 10 µM [3H] compound, 2 hours): 158000 DPM
DPM tri (HSV-TK extract; 10 µM [3H] compound, 2 hours): 410 DPM
major phosphorylated derivative (HSV-TK extract; 50 µM, 60 minutes at 37°C, Fig. 3): primarily to the monophosphate form
VR (HSV-1 (strain 377, TK+)): 0.8-2.4
EC50 (HSV-1 (strain 377, TK+); Human alphaherpesvirus 1, read-out: Mic50): 39 to 257 µg/mL (≈ 147 to 969 µM)
anti-HBV activity (in words) (HBV; 50 ng/ml to 5 ug/ml, 2.2.15 cells): did not exhibit any significant anti-HBV activity
INTRACELLULAR HBV DNA INTEG. (HBV; 50ng/ml, listed as L, 2-CdG): 1.3 PG/UG CELL DNA and 0.8 PG/UG CELL DNA
INTRACELLULAR HBV DNA MONO. (HBV; 50ng/ml, listed as L, 2-CdG): 1.4 PG/UG CELL DNA and 1.1 PG/UG CELL DNA
INTRACELLULAR HBV DNA RI (HBV; 50ng/ml, listed as L, 2-CdG): 90 PG/UG CELL DNA and 76 PG/UG CELL DNA
HBV DNA IN CULTURE MEDIUM DAY 0 (HBV; 50ng/ml, listed as L, 2-CdG): 48 pg/mL and 67 pg/mL
HBV DNA IN CULTURE MEDIUM DAY 3 (HBV; 50ng/ml, listed as L, 2-CdG): 47 pg/mL and 83 pg/mL
HBV DNA IN CULTURE MEDIUM DAY 6 (HBV; 50ng/ml, listed as L, 2-CdG): 90 pg/mL and 63 pg/mL
HBV DNA IN CULTURE MEDIUM DAY 10 (HBV; 50ng/ml, listed as L, 2-CdG): 90 pg/mL and 61 pg/mL
INTRACELLULAR HBV DNA MONO. (HBV; 500ng/ml): 1.9 PG/UG CELL DNA
INTRACELLULAR HBV DNA INTEG. (HBV; 500ng/ml, listed as L, 2-CdG): 1.4 PG/UG CELL DNA and 1.5 PG/UG CELL DNA
INTRACELLULAR HBV DNA RI (HBV; 500ng/ml, listed as L, 2-CdG): 82 PG/UG CELL DNA and 99 PG/UG CELL DNA
HBV DNA IN CULTURE MEDIUM DAY 0 (HBV; 500ng/ml, listed as L, 2-CdG): 90 pg/mL and 110 pg/mL
HBV DNA IN CULTURE MEDIUM DAY 3 (HBV; 500ng/ml, listed as L, 2-CdG): 63 pg/mL and 83 pg/mL
HBV DNA IN CULTURE MEDIUM DAY 6 (HBV; 500ng/ml, listed as L, 2-CdG): 78 pg/mL and 56 pg/mL
HBV DNA IN CULTURE MEDIUM DAY 10 (HBV; 500ng/ml, listed as L, 2-CdG): 97 pg/mL and 91 pg/mL
INTRACELLULAR HBV DNA INTEG. (HBV; 5 ug/ml, listed as L, 2-CdG): 1.5 PG/UG CELL DNA and 0.9 PG/UG CELL DNA
INTRACELLULAR HBV DNA MONO. (HBV; 5 ug/ml, listed as L, 2-CdG): 2.0 PG/UG CELL DNA and 1.1 PG/UG CELL DNA
INTRACELLULAR HBV DNA RI (HBV; 5 ug/ml, listed as L, 2-CdG): 97 PG/UG CELL DNA and 86 PG/UG CELL DNA
HBV DNA IN CULTURE MEDIUM DAY 0 (HBV; 5 ug/ml, listed as L, 2-CdG): 50 pg/mL and 88 pg/mL
HBV DNA IN CULTURE MEDIUM DAY 3 (HBV; 5 ug/ml, listed as L, 2-CdG): 67 pg/mL and 110 pg/mL
HBV DNA IN CULTURE MEDIUM DAY 6 (HBV; 5 ug/ml, listed as L, 2-CdG): 77 pg/mL and 120 pg/mL
HBV DNA IN CULTURE MEDIUM DAY 10 (HBV; 5 ug/ml, listed as L, 2-CdG): 90 pg/mL and 120 pg/mL
